According to patent US20240122872A1, “COMPOSITIONS AND METHODS FOR TREATMENT OF MICROBIAL INFECTIONS” (EpiTop, Inc., priority 2022, published 2024):
Like-named read-outs stand apart in the source and are kept apart here.

Columns and labels:
coronavirus (229E-VR740) = assay: Relative gene expression of coronavirus 229E in human fibroblasts (real time RT-PCR); assay type: cell-based; conditions: 0.01% or 0.02% thujopsene, 24 hours
Description: Human fibroblasts (Atcc.org, CCL-191) were treated with coronavirus (229E) and 0.01% or 0.02% of thujopsene for 24 hours, and then RNAs were isolated and PCRs were performed. Total RNA was isolated according to manufacturer's guidelines. RNeasy Mini Kits (Qiagen, Germantown, MD) were used according to the manufacturer's protocol to isolate RNA. RNA was reverse transcribed into cDNA using SuperScript® VILO™ MasterMix according to manufacturer's protocol and DNA was isolated according to manufacturer's guidelines. cDNAs were analyzed by real time RT-PCR by using an ABI Prism 7300 sequence detector.

HSV-1 = HSV-1 plaque assay (virus incubated with thujopsene, BS-C-1 cells); assay type: cell-based
Description: BS-C-1 African green monkey kidney cells were seeded at 2×10^5 cells/well in 24 well plates (Becton Dickinson, Torreyana, CA) and allowed to grow to confluence overnight at 37° C., 5% CO2 in Earle's MEM with 10% fetal calf serum (FCS). To examine the effects of thujopsene, 0, 0.01, and 0.02% of thujopsene were incubated with […] HSV-1 for 2 or 4 hours, at 37° C. and 5% CO2. For the plaque assay, the medium was removed and wells were overlaid with 0.5 ml 4% buffered formalin, allowed to fix for 10 minutes at room temperature. The formalin was removed and 0.5 ml 0.1% crystal violet in PBS was added to the wells for 5 minutes at room temperature. Wells were then aspirated and the air-dried for visualization of plaques.

Vaccinia virus (VV) = assay type: cell-based
[1] = system: Streptococcus pyogenes (ATCC BAA-19615); assay: Bactericidal assay (colony count), S. pyogenes; conditions: 2 hours at 37° C.; concentration as low as 0.0001%; thujopsene (0.001%), totarol (0.0001%) or combination
[2] = system: coronavirus 229E (VR-740); assay: Coronavirus 229E-mediated destruction of human fibroblasts (microscopy); assay type: cell-based; conditions: 229E 0.05 pfu/cell, 3 days or 5 days
Description: Normal human lung fibroblst (ATCC.org, CCL-191) were seeded at 1×10^5 cells/well in 24 well plates (Becton Dickinson, Torreyana, CA) and allowed to grow to confluence overnight at 37° C., 5% CO2 in Earle's MEM with 10% fetal calf serum (FCS). To examine whether thujopsene prevents coronavirus (229E)-induced destruction of fibroblast, fibroblasts were incubated with thujopsene (0.00, 0.01 or 0.02%) and 229E (0.05 pfu/cell) for 3 days or 5 days at 37° C. and 5% CO2. Then cell images (x25 magnification) were taken with the microscopy (Leica, Wetzler, Germany).

Compound | Relative gene expression of 229E (coronavirus VR740) (coronavirus (229E-VR740); 0.01 pfu/cell) | Relative gene expression of 229E (coronavirus VR740) (coronavirus (229E-VR740); 0.05 pfu/cell) | Decrease of titers of virus (HSV-1; 2-hour incubation with 0.01% thujopsene) | Decrease of titers of virus (HSV-1; 2-hour incubation with 0.01% thujopsene (first statement)) | Decrease of titers of virus (HSV-1; 4-hour incubation with 0.01% thujopsene) | Decrease of titers of virus (Vaccinia virus (VV); 2-hour incubation with 0.02% thujopsene) | Decrease of titers of virus (Vaccinia virus (VV); 4-hour incubation with 0.02% thujopsene) | Inhibition of S. Pyogenes [1] | Cellular structure of fibroblasts after treatment with coronavirus 229E ([2]; 0.01% thujopsene) | Cellular structure of fibroblasts after treatment with coronavirus 229E ([2]; 0.02% thujopsene)
CC1=CC[C@]2(C)CCCC(C)(C)[C@@]23C[C@@H]13 [thujopsene] | decreased in a dose-dependent manner | decreased in a dose-dependent manner | at least 90% | at least 50% | at least 90% | at least 25% | at least 25% | significantly inhibited | the cellular structures were maintained | the cellular structures were maintained
CC(C)c1c(O)ccc2c1CC[C@H]1C(C)(C)CCC[C@]21C [totarol] |  |  |  |  |  |  |  | significantly inhibited |  | 
